System: ovalbumin-sensitized guinea pigs
Test: Guinea pig allergic rhinitis model: intranasal pressure after nasal ovalbumin challenge
Format: in vivo
Settings: 60 minutes prior to ovalbumin 1% challenge, AUC 0-30 min
Method: Male Hartley guinea pigs (250-500 g) purchased from Charles River (St-Constant, Qc, Canada) were used. They were housed in a temperature and humidity controlled environment, in groups of four or five with food and water available ad libitum. Experimental procedures were approved by the Animal Care Committee at Merck Frosst Centre for Therapeutic Research, in accordance with the guidelines of the Canadian Council on Animal Care.
Sensitization: The animals were injected intraperitoneally with 0.5 ml of an ovalbumin solution (100 μg/ml) containing 100 mg/ml aluminum hydroxide in 0.9% saline. […]
Following the surgical preparation, gallamine (2 mg/kg, i.v.) was administered to suppress spontaneous breathing. […] The changes in the intranasal pressure were monitored through a pressure transducer (Validyne DP-45, membrane 6-26, Validyne Corp., Northridge, Calif.) connected to a side arm of the nasal cannula. Values were recorded every 5 seconds using a data acquisition system (Modular Instruments, Malvern, Pa.). […]
The effects of test compounds were evaluated on the increased intranasal pressure following a nasal challenge with an aerosol of ovalbumin 1% for 3 minutes. […] The changes in intranasal pressure were recorded for the 30 minutes following the nasal challenge, using the peak response. […]

Compound | effect on the increase in intranasal pressure induced by ovalbumin aerosol (Compound I 1 mg/kg i.p. alone) | effect on the increase in intranasal pressure induced by ovalbumin aerosol (mepyramine 5 mg/kg i.p. alone)
C[S@+]([O-])c1cccc2c3c(n(Cc4ccc(Cl)cc4)c12)[C@@H](CC(=O)O)CCC3 [Compound I, 2-[(1R)-9-(4-chlorobenzyl)-8-((S)-methylsulfinyl)-2,3,4,9-tetrahydro-1H-carbazol-1-yl]acetic acid] | no significant effect | –
COc1ccc(CN(CCN(C)C)c2ccccn2)cc1 [mepyramine] | – | no significant effect

Reference: patent publication US20010051624A1, “Method and compositions for the treatment of allergic conditions using PGD2 receptor antagonists” (priority 2000, published 2001)
